From US10357481B2 (MERCK SHARP & DOHME CORP., priority 2015, dated 2019)

Target: T1, human PDE2A1 (Homo sapiens, UniProt O00408)
T1 construct: GST; purchased BPS Bioscience (San Diego, Calif.) 60020; host or cells: insect cells
Assay: IMAP FP PDE selectivity panel, human PDE2A1
Type: biochemical
Details: Lab B; read-out: Human PDE2 Ki (nM) Lab B
In short: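 IMAP FP read-out, run at room temperature in parallel with PDE1–11: enzyme at 20% substrate conversion, 50 nM FAM-cAMP containing 1000 nM cGMP, Tris pH 7.2/MgCl2/DTT buffer. Compounds as ten 3-fold dilutions. Reaction 60 min, stopped with binding reagent for 1 h before polarization measurement.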

T1 sequence (O00408 1-920 isoform O00408-2): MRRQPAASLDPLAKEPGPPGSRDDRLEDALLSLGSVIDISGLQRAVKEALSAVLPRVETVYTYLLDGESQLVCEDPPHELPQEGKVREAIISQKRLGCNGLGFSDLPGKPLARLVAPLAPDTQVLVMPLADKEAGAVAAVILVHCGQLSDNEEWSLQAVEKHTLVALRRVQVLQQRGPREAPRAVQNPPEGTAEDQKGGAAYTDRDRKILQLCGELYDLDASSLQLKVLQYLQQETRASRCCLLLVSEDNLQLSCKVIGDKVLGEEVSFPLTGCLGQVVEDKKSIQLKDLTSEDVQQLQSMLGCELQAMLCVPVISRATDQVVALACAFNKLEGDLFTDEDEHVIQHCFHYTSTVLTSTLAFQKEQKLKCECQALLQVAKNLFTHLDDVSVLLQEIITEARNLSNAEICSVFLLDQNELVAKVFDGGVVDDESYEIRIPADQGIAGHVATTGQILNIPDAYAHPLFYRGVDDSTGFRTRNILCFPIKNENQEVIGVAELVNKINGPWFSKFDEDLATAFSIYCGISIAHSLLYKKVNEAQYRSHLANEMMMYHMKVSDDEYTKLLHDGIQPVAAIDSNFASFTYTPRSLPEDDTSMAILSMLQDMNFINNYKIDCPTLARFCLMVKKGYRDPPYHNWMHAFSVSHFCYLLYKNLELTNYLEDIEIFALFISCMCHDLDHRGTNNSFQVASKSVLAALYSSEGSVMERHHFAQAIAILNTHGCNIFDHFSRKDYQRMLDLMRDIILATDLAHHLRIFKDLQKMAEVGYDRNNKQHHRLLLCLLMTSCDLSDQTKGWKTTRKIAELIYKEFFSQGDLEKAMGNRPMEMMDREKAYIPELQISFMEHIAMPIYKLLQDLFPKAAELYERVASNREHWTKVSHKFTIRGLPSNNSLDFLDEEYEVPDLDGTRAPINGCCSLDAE

Row | SMILES | Ki
1 | Fc1cc(C2(Nc3cc(C(F)(F)F)nc4ncnn34)CC2)ccc1C(F)(F)F [Example 82, N-{1-[3-Fluoro-4-(trifluoromethyl)phenyl]cyclopropyl}-5-(trifluoromethyl)-[1,2,4]triazolo[1,5-a]pyrimidin-7-amine] | 10 nM
2 | Cc1nc2ncnn2c(NC2(c3ccc(C(F)(F)F)c(F)c3)CC2)c1C [Example 87, N-{1-[3-Fluoro-4-(trifluoromethyl)phenyl]cyclopropyl}-5,6-dimethyl[1,2,4]triazolo[1,5-a]pyrimidin-7-amine] | 132 nM
3 | Cc1cc(N[C@@H](c2ccc(C(F)(F)F)cc2)[C@@H](C)O)n2ncnc2n1 [Example 89, (1S,2R)-1-[(5-Methyl[1,2,4]triazolo[1,5-a]pyrimidin-7-yl)amino]-1-[4-(trifluoromethyl)phenyl]propan-2-ol] | 82 nM
4 | Cc1cc(N[C@@H](c2ccc(C(F)(F)F)cc2)[C@H](C)O)n2ncnc2n1 [Example 90, (1S,2S)-1-[(5-Methyl[1,2,4]triazolo[1,5-a]pyrimidin-7-yl)amino]-1-[4-(trifluoromethyl)phenyl]propan-2-ol] | ~1790 nM
5 | Cc1cc(N[C@@H](c2ccc(OC(F)(F)F)cc2F)C(C)(C)O)n2ncnc2n1 [Example 93, (1S)-1-[2-Fluoro-4-(trifluoromethoxy)phenyl]-2-methyl-[(5-methyl-[1,2,4]triazolo[1,5-a]pyrimidin-7-yl)amino]propan-2-ol] | 742 nM
6 | Cc1cc(N[C@@H](c2ccc(C(F)(F)F)cc2)C(C)(C)O)n2ncnc2n1 [Example 94, (1S)-2-Methyl-1-[(5-methyl [1,2,4]triazolo[1,5-a]pyrimidin-7-yl)amino]-1-[4-(trifluoromethyl)phenyl]propan-2-ol] | 17 nM
7 | Cc1cc(N[C@H](c2ccc(C(F)(F)F)cc2)C(C)(C)O)n2ncnc2n1 [Example 95, (1R)-2-Methyl-1-[(5-methyl [1,2,4]triazolo[1,5-a]pyrimidin-7-yl)amino]-1-[4-(trifluoromethyl)phenyl]propan-2-ol] | > 2960 nM
8 | Cc1cc(N[C@H](c2ccc(OC(F)(F)F)cc2)C(C)(C)O)n2ncnc2n1 [Example 97, (1R)-2-Methyl-1-[(5-methyl [1,2,4]triazolo[1,5-a]pyrimidin-7-yl)amino]-1-[4-(trifluoromethoxy)phenyl]propan-2-ol] | > 2960 nM
9 | Cc1cc(N[C@@H](c2ccc(OC(F)(F)F)cc2Cl)C(C)(C)O)n2ncnc2n1 [Example 100, (1S)-1-[2-Chloro-4-(trifluoromethoxy)phenyl]-2-methyl-1-[(5-methyl[1,2,4]triazolo[1,5-a]pyrimidin-7-yl)amino]propan-2-ol] | 4.3 nM
10 | Cc1cc(N[C@H](c2ccc(OC(F)(F)F)cc2Cl)C(C)(C)O)n2ncnc2n1 [Example 101, (1R)-1-[2-Chloro-4-(trifluoromethoxy)phenyl]-2-methyl-1-[(5-methyl[1,2,4]triazolo[1,5-a]pyrimidin-7-yl)amino]propan-2-ol] | 27 nM
11 | Cc1cc(N[C@H](c2ccc(OC(F)(F)F)c(Cl)c2)C(C)(C)O)n2ncnc2n1 [Example 103, (1R)-1-[3-Chloro-4-(trifluoromethoxy)phenyl]-2-methyl-1-[(5-methyl[1,2,4]triazolo[1,5-a]pyrimidin-7-yl)amino]propan-2-ol] | 34 nM
12 | Cc1cc(N[C@@H](c2ccc(F)c(OC(F)(F)F)c2)C(C)(C)O)n2ncnc2n1 [Example 130, (1S)-1-[4-Fluoro-3-(trifluoro-methoxy)phenyl]-2-methyl-1-[(5-methyl[1,2,4]triazolo[1,5-a]pyrimidin-7-yl)amino]propan-2-ol] | 2290 nM
13 | Cc1cc(N[C@H](c2ccc(F)c(OC(F)(F)F)c2)C(C)(C)O)n2ncnc2n1 [Example 131, (1R)-1-[4-Fluoro-3-(trifluoro-methoxy)phenyl]-2-methyl-1-[(5-methyl[1,2,4]triazolo[1,5-a]pyrimidin-7-yl)amino]propan-2-ol] | > 2960 nM
14 | Cc1cc(N[C@H](CC(C)(C)O)c2ccc(C(F)(F)F)c(F)c2)n2ncnc2n1 [Example 152, (4R)-4-[3-Fluoro-4-(trifluoromethyl)phenyl]-2-methyl-4-[(5-methyl[1,2,4]triazolo[1,5-a]pyrimidin-7-yl)amino]butan-2-ol] | 766 nM
15 | Cc1cc(N[C@](C)(c2ccc(OC(F)(F)F)cc2)C(C)(C)O)n2ncnc2n1 [Example 154, (3R)-2-Methyl-3-[(5-methyl[1,2,4]triazolo[1,5-a]pyrimidin-7-yl)amino]-3-[4-(trifluoromethoxy)phenyl]butan-2-ol] | > 2960 nM
16 | Cc1cc(N[C@@](C)(c2ccc(OC(F)(F)F)cc2)C(C)(C)O)n2ncnc2n1 [Example 155, (3S)-2-Methyl-3-[(5-methyl[1,2,4]triazolo[1,5-a]pyrimidin-7-yl)amino]-3-[4-(trifluoromethoxy)phenyl]butan-2-ol] | 525 nM

Second part, the compound after the results:

Row | Ki | SMILES
17 | 31 nM | FCc1cc(NC2(c3ccc(C(F)(F)F)c(F)c3)CC2)n2ncnc2n1 [Example 81, 5-(Fluoromethyl)-N-{1-[3-fluoro-4-(trifluoromethyl)phenyl]cyclopropyl}[1,2,4]triazolo[1,5-a]pyrimidin-7-amine]
18 | ~1160 nM | Cc1nc2ncnn2c(N[C@H](C)c2ccc(C(F)(F)F)cc2)c1C [Example 85, 5,6-Dimethyl-N-{(1R)-1-[4-(trifluoromethyl)phenyl]ethyl}[1,2,4]triazolo[1,5-a]pyrimidin-7-amine]
19 | ~1750 nM | Cc1nc2ncnn2c(N[C@@H](C)c2ccc(C(F)(F)F)cc2)c1C [Example 86, 5,6-Dimethyl-N-{(1S)-1-[4-(trifluoromethyl)phenyl]ethyl}[1,2,4]triazolo[1,5-a]pyrimidin-7-amine]
20 | 736 nM | Cc1cc(NC(CO)c2ccc(C(F)(F)F)cc2)n2ncnc2n1 (stereo not shown) [Example 88, 2-[(5-Methyl[1,2,4]triazolo[1,5-a]pyrimidin-7-yl)amino]-2-[4-(trifluoromethyl)phenyl]ethanol]
21 | 15 nM | Cc1cc(N[C@@H](c2ccc(OC(F)(F)F)cc2)C(C)(C)O)n2ncnc2n1 [Example 96, (1S)-2-Methyl-1-[(5-methyl [1,2,4]triazolo[1,5-a]pyrimidin-7-yl)amino]-1-[4-(trifluoromethoxy)phenyl]propan-2-ol]
22 | 555 nM | Cc1cc(N[C@H](c2ccc(C(F)(F)F)c(F)c2)C(C)(C)O)n2ncnc2n1 [Example 99, (1R)-1-[3-Fluoro-4-(trifluoromethyl)phenyl]-2-methyl-1-[(5-methyl [1,2,4]triazolo[1,5-a]pyrimidin-7-yl)amino]propan-2-ol]
23 | 14 nM | Cc1cc(N[C@@H](c2ccc(OC(F)(F)F)c(Cl)c2)C(C)(C)O)n2ncnc2n1 [Example 102, (1S)-1-[3-Chloro-4-(trifluoromethoxy)phenyl]-2-methyl-1-[(5-methyl[1,2,4]triazolo[1,5-a]pyrimidin-7-yl)amino]propan-2-ol]
24 | > 2960 nM | Cc1cc(N[C@@H](CC(C)(C)O)c2ccc(C(F)(F)F)c(F)c2)n2ncnc2n1 [Example 153, (4S)-4-[3-Fluoro-4-(trifluoromethyl)phenyl]-2-methyl-4-[(5-methyl[1,2,4]triazolo[1,5-a]pyrimidin-7-yl)amino]butan-2-ol]
25 | 67 nM | Cc1cc(N[C@@H](c2ccc(C(F)(F)F)c(F)c2)C(C)(C)C)n2nc(CF)nc2n1 [Example 191, 2-(Fluoromethyl)-N-{(1R)-1-[3-fluoro-4-(trifluoromethyl)phenyl]-2,2-dimethylpropyl}-5-methyl[1,2,4]triazolo[1,5-a]pyrimidin-7-amine]
